# Reference: patent publication US20260130395A1, “Water Dispersible Botanical Compositions” (Aquila Black Limited, priority 2021, published 2026)
# Test: Stability of cannabinoid compounds and Vitamin E components in Beverage 2 (AB Red) by LCMSMS
# Assay type: physicochemical
# Experimental: The stability of the plant-derived cannabinoid compounds and Vitamin E components of the beverage stored 8° C. and at room temperature (21-25° C.) were monitored, over a period of 570 days via Liquid Chromatography-tandem Mass Spectrometry [LCMSMS, AGilent 6590, C18, 3×50 mm, 2.7 m (Agilent InfinityLab Poroshell 120 EC-C18), Electrospray Ionization detector]. The LCMSMS was calibrated for 0-50 ng/ml cannabinoids with the same resin material used in the preparation of the concentrates. At each time period, 100 ml of beverage was diluted with 10 ml of methanol and injected into the LCMSMS for analysis.
compound,measurement,setting,value
"CCCCCc1cc(O)c2c(c1)OC1(C)CCC3C1C2C3(C)C (centres unmarked) [CBL, cannabicyclol]",Stability of Plant-Derived Cannabinoid Compounds in AB Red,"stored at 8° C., 0 days",0.510 µg/mL
same,Stability of Plant-Derived Cannabinoid Compounds in AB Red,"stored at 8° C., 1 days",0.512 µg/mL
same,Stability of Plant-Derived Cannabinoid Compounds in AB Red,"stored at 8° C., 2 days",0.508 µg/mL
same,Stability of Plant-Derived Cannabinoid Compounds in AB Red,"stored at 8° C., 3 days",0.499 µg/mL
same,Stability of Plant-Derived Cannabinoid Compounds in AB Red,"stored at 8° C., 5 days",0.501 µg/mL
same,Stability of Plant-Derived Cannabinoid Compounds in AB Red,"stored at 8° C., 8 days",0.496 µg/mL
same,Stability of Plant-Derived Cannabinoid Compounds in AB Red,"stored at 8° C., 9 days",0.496 µg/mL
same,Stability of Plant-Derived Cannabinoid Compounds in AB Red,"stored at 8° C., 10 days",0.505 µg/mL
same,Stability of Plant-Derived Cannabinoid Compounds in AB Red,"stored at 8° C., 11 days",0.501 µg/mL
same,Stability of Plant-Derived Cannabinoid Compounds in AB Red,"stored at 8° C., 12 days",0.499 µg/mL
same,Stability of Plant-Derived Cannabinoid Compounds in AB Red,"stored at 8° C., 15 days",0.510 µg/mL
same,Stability of Plant-Derived Cannabinoid Compounds in AB Red,"stored at 8° C., 16 days",0.502 µg/mL
same,Stability of Plant-Derived Cannabinoid Compounds in AB Red,"stored at 8° C., 17 days",0.514 µg/mL
same,Stability of Plant-Derived Cannabinoid Compounds in AB Red,"stored at 8° C., 18 days",0.513 µg/mL
same,Stability of Plant-Derived Cannabinoid Compounds in AB Red,"stored at 8° C., 19 days",0.510 µg/mL
same,Stability of Plant-Derived Cannabinoid Compounds in AB Red,"stored at 8° C., 22 days",0.495 µg/mL
same,Stability of Plant-Derived Cannabinoid Compounds in AB Red,"stored at 8° C., 23 days",0.502 µg/mL
same,Stability of Plant-Derived Cannabinoid Compounds in AB Red,"stored at 8° C., 24 days",0.508 µg/mL
same,Stability of Plant-Derived Cannabinoid Compounds in AB Red,"stored at 8° C., 25 days",0.510 µg/mL
same,Stability of Plant-Derived Cannabinoid Compounds in AB Red,"stored at 8° C., 26 days",0.502 µg/mL
same,Stability of Plant-Derived Cannabinoid Compounds in AB Red,"stored at 8° C., 29 days",0.511 µg/mL
same,Stability of Plant-Derived Cannabinoid Compounds in AB Red,"stored at 8° C., 30 days",0.511 µg/mL
same,Stability of Plant-Derived Cannabinoid Compounds in AB Red,"stored at 8° C., 60 days",0.491 µg/mL
same,Stability of Plant-Derived Cannabinoid Compounds in AB Red,"stored at 8° C., 90 days",0.501 µg/mL
same,Stability of Plant-Derived Cannabinoid Compounds in AB Red,"stored at 8° C., 120 days",0.488 µg/mL
same,Stability of Plant-Derived Cannabinoid Compounds in AB Red,"stored at 8° C., 150 days",0.501 µg/mL
same,Stability of Plant-Derived Cannabinoid Compounds in AB Red,"stored at 8° C., 180 days",0.506 µg/mL
same,Stability of Plant-Derived Cannabinoid Compounds in AB Red,"stored at 8° C., 210 days",0.490 µg/mL
same,Stability of Plant-Derived Cannabinoid Compounds in AB Red,"stored at 8° C., 240 days",0.490 µg/mL
same,Stability of Plant-Derived Cannabinoid Compounds in AB Red,"stored at 8° C., 270 days",0.504 µg/mL
same,Stability of Plant-Derived Cannabinoid Compounds in AB Red,"stored at 8° C., 300 days",0.489 µg/mL
same,Stability of Plant-Derived Cannabinoid Compounds in AB Red,"stored at 8° C., 330 days",0.505 µg/mL
same,Stability of Plant-Derived Cannabinoid Compounds in AB Red,"stored at 8° C., 360 days",0.495 µg/mL
same,Stability of Plant-Derived Cannabinoid Compounds in AB Red,"stored at 8° C., 390 days",0.491 µg/mL
same,Stability of Plant-Derived Cannabinoid Compounds in AB Red,"stored at 8° C., 420 days",0.494 µg/mL
same,Stability of Plant-Derived Cannabinoid Compounds in AB Red,"stored at 8° C., 450 days",0.492 µg/mL
same,Stability of Plant-Derived Cannabinoid Compounds in AB Red,"stored at 8° C., 480 days",0.487 µg/mL
same,Stability of Plant-Derived Cannabinoid Compounds in AB Red,"stored at 8° C., 510 days",0.468 µg/mL
same,Stability of Plant-Derived Cannabinoid Compounds in AB Red,"stored at 8° C., 540 days",0.470 µg/mL
same,Stability of Plant-Derived Cannabinoid Compounds in AB Red,"stored at 8° C., 570 days",0.469 µg/mL
same,Stability of Plant-Derived Cannabinoid Compounds in AB Red,"stored at 21-25° C., 0 days",0.51 µg/mL
same,Stability of Plant-Derived Cannabinoid Compounds in AB Red,"stored at 21-25° C., 1 days",0.50 µg/mL
same,Stability of Plant-Derived Cannabinoid Compounds in AB Red,"stored at 21-25° C., 2 days",0.50 µg/mL
same,Stability of Plant-Derived Cannabinoid Compounds in AB Red,"stored at 21-25° C., 3 days",0.50 µg/mL
same,Stability of Plant-Derived Cannabinoid Compounds in AB Red,"stored at 21-25° C., 5 days",0.51 µg/mL
same,Stability of Plant-Derived Cannabinoid Compounds in AB Red,"stored at 21-25° C., 8 days",0.50 µg/mL
same,Stability of Plant-Derived Cannabinoid Compounds in AB Red,"stored at 21-25° C., 9 days",0.51 µg/mL
same,Stability of Plant-Derived Cannabinoid Compounds in AB Red,"stored at 21-25° C., 10 days",0.50 µg/mL
same,Stability of Plant-Derived Cannabinoid Compounds in AB Red,"stored at 21-25° C., 11 days",0.50 µg/mL
same,Stability of Plant-Derived Cannabinoid Compounds in AB Red,"stored at 21-25° C., 12 days",0.50 µg/mL
same,Stability of Plant-Derived Cannabinoid Compounds in AB Red,"stored at 21-25° C., 15 days",0.50 µg/mL
same,Stability of Plant-Derived Cannabinoid Compounds in AB Red,"stored at 21-25° C., 16 days",0.51 µg/mL
same,Stability of Plant-Derived Cannabinoid Compounds in AB Red,"stored at 21-25° C., 17 days",0.51 µg/mL
same,Stability of Plant-Derived Cannabinoid Compounds in AB Red,"stored at 21-25° C., 18 days",0.50 µg/mL
same,Stability of Plant-Derived Cannabinoid Compounds in AB Red,"stored at 21-25° C., 19 days",0.49 µg/mL
same,Stability of Plant-Derived Cannabinoid Compounds in AB Red,"stored at 21-25° C., 22 days",0.49 µg/mL
same,Stability of Plant-Derived Cannabinoid Compounds in AB Red,"stored at 21-25° C., 23 days",0.51 µg/mL
same,Stability of Plant-Derived Cannabinoid Compounds in AB Red,"stored at 21-25° C., 24 days",0.50 µg/mL
same,Stability of Plant-Derived Cannabinoid Compounds in AB Red,"stored at 21-25° C., 25 days",0.51 µg/mL
same,Stability of Plant-Derived Cannabinoid Compounds in AB Red,"stored at 21-25° C., 26 days",0.51 µg/mL
same,Stability of Plant-Derived Cannabinoid Compounds in AB Red,"stored at 21-25° C., 29 days",0.49 µg/mL
same,Stability of Plant-Derived Cannabinoid Compounds in AB Red,"stored at 21-25° C., 30 days",0.51 µg/mL
same,Stability of Plant-Derived Cannabinoid Compounds in AB Red,"stored at 21-25° C., 60 days",0.50 µg/mL
same,Stability of Plant-Derived Cannabinoid Compounds in AB Red,"stored at 21-25° C., 90 days",0.49 µg/mL
same,Stability of Plant-Derived Cannabinoid Compounds in AB Red,"stored at 21-25° C., 120 days",0.50 µg/mL
same,Stability of Plant-Derived Cannabinoid Compounds in AB Red,"stored at 21-25° C., 150 days",0.49 µg/mL
same,Stability of Plant-Derived Cannabinoid Compounds in AB Red,"stored at 21-25° C., 180 days",0.50 µg/mL
same,Stability of Plant-Derived Cannabinoid Compounds in AB Red,"stored at 21-25° C., 210 days",0.49 µg/mL
same,Stability of Plant-Derived Cannabinoid Compounds in AB Red,"stored at 21-25° C., 240 days",0.49 µg/mL
same,Stability of Plant-Derived Cannabinoid Compounds in AB Red,"stored at 21-25° C., 270 days",0.49 µg/mL
same,Stability of Plant-Derived Cannabinoid Compounds in AB Red,"stored at 21-25° C., 300 days",0.50 µg/mL
same,Stability of Plant-Derived Cannabinoid Compounds in AB Red,"stored at 21-25° C., 330 days",0.50 µg/mL
same,Stability of Plant-Derived Cannabinoid Compounds in AB Red,"stored at 21-25° C., 360 days",0.49 µg/mL
same,Stability of Plant-Derived Cannabinoid Compounds in AB Red,"stored at 21-25° C., 390 days",0.49 µg/mL
same,Stability of Plant-Derived Cannabinoid Compounds in AB Red,"stored at 21-25° C., 420 days",0.48 µg/mL
same,Stability of Plant-Derived Cannabinoid Compounds in AB Red,"stored at 21-25° C., 450 days",0.49 µg/mL
same,Stability of Plant-Derived Cannabinoid Compounds in AB Red,"stored at 21-25° C., 480 days",0.48 µg/mL
same,Stability of Plant-Derived Cannabinoid Compounds in AB Red,"stored at 21-25° C., 510 days",0.47 µg/mL
same,Stability of Plant-Derived Cannabinoid Compounds in AB Red,"stored at 21-25° C., 540 days",0.47 µg/mL
same,Stability of Plant-Derived Cannabinoid Compounds in AB Red,"stored at 21-25° C., 570 days",0.47 µg/mL
